According to patent US20180346731A1, “Formation of Stable Pyranoanthocyanins, and Uses Thereof as Sources of Natural Color” (Ohio State Innovation Foundation, priority 2017, published 2018):

Key:
Type in all cases: physicochemical
[1] = Anthocyanin survival of control treatments at pH 2.5 (uHPLC AUC 500-520 nm); details: pH 2.5 acidified water, no pyruvic acid, 25° C., day 31
Experimental: FIG. 10: Pyranoanthocyanin yield for anthocyanins (500 μM) subjected to pyruvic acid treatment (×100 M ratio) and anthocyanin survival of control treatments at pH 2.5 acidified water at day 7, 14, and 31. Yield defined as (AUC500-520 nm of PACN at tn/AUC500-520 nm of ACN @t0)*100. Survival defined as (AUC500-520 nm of ACN at tn/AUC500-520 nm of ACN @ t0)*100. Values shown are means (n=3) and bars represent standard deviation.
A uHPLC system (Shimadzu Nexera-i LC-2040C, Maryland, U.S.) coupled with tandem MS (Shimadzu LCMS-8040, Maryland, U.S.) was used in evaluating initial anthocyanin purity and monitoring changes in anthocyanins with and without pyruvic acid treatment over time. A 0.4 mL/min flow rate was used on a Pinnacle DB (Restek Corporation, Bellefonte, Pa.) C18 Column (1.9 μm particle size, 50×2.1 mm length). The column oven was set at 40° C. The following gradient of solvent A (4.5% formic acid) and B (100% acetonitrile) was used: 0% B for the first minute, ramped to 15% B by 10 min. This method was effective for separation of the formed pyranoanthocyanin from anthocyanin for all isolates except cy3rut which coeluted with the formed pyranoanthocyanin. This was observed through MS-MS data. […]
Quantification of pigments was conducted on day 0, 3, 7, 14, and 31 using a standard curve of cyanidin-3-glucoside (Sigma Aldrich, St. Louis, Mo., U.S.) run under the same conditions used for isolates. Molar absorptivities of anthocyanins and carboxypyranoanthocyanidins have been reported as being relatively similar and were thought to provide a basis of confidence in using AUC500-520 nm as a quantitative measure of pyranoanthocyanin yield.
Prior to dilution, the concentrations of the isolated pigment extracts were determined by the pH differential method for subsequent dilution to known concentrations. The isolates were then diluted to 500 μM (expressed as Cyanidin-3-glucoside equivalents) in pH 2.5 deionized water (previously adjusted with HCl) which contained 0.1% potassium sorbate (w/v) and 0.1% sodium benzoate (w/v) to function as preservative agents during storage. […]

[2] = UV-Vis spectra of anthocyanin isolates treated with pyruvic acid, 31 days storage; details: for decrease in maximum absorbance: 500 μM, pyruvic acid ×100 M ratio, pH 2.5, 25° C., after 31 days
Experimental: (§1) Prior to dilution, the concentrations of the isolated pigment extracts were determined by the pH differential method for subsequent dilution to known concentrations. The isolates were then diluted to 500 μM (expressed as Cyanidin-3-glucoside equivalents) in pH 2.5 deionized water (previously adjusted with HCl) which contained 0.1% potassium sorbate (w/v) and 0.1% sodium benzoate (w/v) to function as preservative agents during storage. A pH of 2.5 was selected as a compromise of several variables: the flavylium form was predominant, the effect of pKh was minimized, and it is a relevant pH for wines. It has been reported that the pKh's of cy3 gal, cy3xylgal, and cy3xylglugal ranges from 3.01 to 3.26. Working at pH 2.5 largely avoided the effect of different equilibrium forms while also maintaining a pH that is similar to that of wines where these compounds are commonly formed. Control samples of each isolate were prepared and contained no pyruvic acid. For treatments containing pyruvic acid, a previously diluted pyruvic acid standard (pyruvic acid in the same pH 2.5 water containing preservatives) was added to obtain concentrations 100× the molar ratio of anthocyanins (50 mM of pyruvic acid). All treatments were brought to the same final volume by the addition of more pH 2.5 water. Samples were filtered through a 0.2 μm membrane into 1.5 mL glass HPLC vials. Vials were capped and stored in an incubator in the dark at 25° C. for a 31 day duration (Fisher Scientific, Waltham, Mass., U.S.). All treatments were prepared in triplicate.
Absorbance spectra of anthocyanin isolates subjected to pyruvic acid treatment was collected using a SpectraMax 190 microplate reader (Molecular Devices, Sunnyvale, Calif., U.S.). Sample aliquots (75 μL) were loaded in a 96-well plate (poly-D-lysine coated polystyrene). Samples were evaluated from 380 to 780 nm in 1 nm intervals. The blank consisted of the same acidified pH 2.5 water solution used to dilute pigment samples. Spectra were collected on day 0, 7, 14, and 31. Spectrophotometric data of the samples was used to correlate with pyranoanthocyanins formation.

[3] = Colorimetry (CIEL*c*h*, ΔE2000) of anthocyanin isolates treated with pyruvic acid, 31 days storage; details: for ΔL* / Δc*: day 0 to day 31; for total color change (ΔE): day 0 vs day 31, Delta E2000; for increase in hue angle: over 31 days
Experimental: as §1
Colorimetric data of samples was calculated from spectra of samples collected from the plate reader with ColorBySpectra. Absorbance data was obtained and conversion to color values was achieved using the following settings: regular transmission, D65 illuminant, and 10° observer angle. Values reported are in the CIEL*c*h* scale. After storage for 31 days, the mathematical differences in color (ΔE) were calculated according to the CIE-L*a*b* Delta E2000 equation. Colorimetric data of the samples containing pyruvic acid was used to correlate with pyranoanthocyanins formation. Spectral absorbance data of the peaks of the anthocyanins and their respective pyranoanthocyanins were also collected from the PDA during uHPLC analyses and converted to colorimetric data using ColorBySpectra under the settings described above. The spectra was obtained from the time of elution of the target compound and then standardized to an absorbance of 1.0 at λvis-max.

decrease in maximum absorbance [2]	total color change (ΔE) [3]	Structure (SMILES)	other results
26%	3.6	OC[C@H]1O[C@@H](OC[C@H]2O[C@@H](Oc3cc4c(O)cc(O)cc4[o+]c3-c3ccc(O)c(O)c3)[C@H](O)[C@@H](O)[C@H]2O)[C@H](O)[C@@H](O)[C@@H]1O [cy3glugal, cyanidin-3-(glucosyl)galactoside]	ΔL* [3]: 1.8; increase in hue angle [3]: 0.5 °
30%	4.9	C[C@@H]1O[C@@H](OC[C@H]2O[C@@H](Oc3cc4c(O)cc(O)cc4[o+]c3-c3ccc(O)c(O)c3)[C@H](O)[C@@H](O)[C@@H]2O)[C@H](O)[C@H](O)[C@H]1O [cy3rut, cyanidin-3-rutinoside]	Δc* [3]: −9.7; increase in hue angle [3]: 1.1 °
	9.7	OC[C@H]1O[C@@H](Oc2cc(O)cc3[o+]c(-c4ccc(O)c(O)c4)c(O[C@@H]4O[C@H](CO)[C@@H](O)[C@H](O)[C@H]4O[C@@H]4O[C@H](CO)[C@@H](O)[C@H](O)[C@H]4O)cc23)[C@H](O)[C@@H](O)[C@@H]1O [cy3soph5glu, cyanidin-3-sophoroside-5-glucoside]	initial L* ([3]; pH 2.5, day 0): 87.5
	9.2	OCC1O[C@@H](Oc2cc3c(O)cc(O)cc3[o+]c2-c2ccc(O)c(O)c2)C(O[C@@H]2OC(CO)[C@@H](O)C(O)[C@H]2O)C(O)[C@@H]1O (stereo partly drawn) [cy3soph, cyanidin-3-sophoroside]	
	7.8	OC[C@H]1O[C@@H](Oc2cc3c(O)cc(O)cc3[o+]c2-c2ccc(O)c(O)c2)[C@H](O[C@@H]2OC[C@@H](O)[C@H](O)[C@H]2O)[C@@H](O)[C@H]1O [cy3xylgal, cyanidin-3-(xylosyl)galactoside]	
	8.3	OC[C@H]1O[C@@H](OC[C@H]2O[C@@H](Oc3cc4c(O)cc(O)cc4[o+]c3-c3ccc(O)c(O)c3)[C@H](O[C@@H]3OC[C@@H](O)[C@H](O)[C@H]3O)[C@@H](O)[C@H]2O)[C@H](O)[C@@H](O)[C@@H]1O [cy3xylglugal, cyanidin-3-(xylosylglucosyl) galactoside]	

Structure (SMILES)	decrease in maximum absorbance [2]	total color change (ΔE) [3]	other results
Oc1cc(O)c2cc(O[C@@H]3OC[C@H](O)[C@H](O)[C@H]3O)c(-c3ccc(O)c(O)c3)[o+]c2c1 [cy3ara, cyanidin-3-arabinoside]	71%	16.4	anthocyanin survival of control treatment [1]: 66%; shift of λvis-max of solution ([2]; pyruvic acid treated, pH 2.5, by day 31): bathochromic shift; ΔL* [3]: 10.2; Δc* [3]: −42.5
OC[C@H]1O[C@@H](Oc2cc3c(O)cc(O)cc3[o+]c2-c2ccc(O)c(O)c2)[C@H](O)[C@@H](O)[C@@H]1O [cy3glu, cyanidin-3-glucoside]		7.2	anthocyanin survival of control treatment [1]: 49%
